Values quoted from earlier work as cited in patent US9756853B2, “Solid pesticidal formulation” (priority 2013, dated 2017).
≈ marks a conversion by molar mass, not a printed value.

Details: 20° C.

CN/C(=N/CC1CCOC1)N[N+](=O)[O-] (stereo not shown) [dinotefuran]
solubility in water: 40 mg/mL (≈ 198 mM)
